Source: patent US10344037B2, “Use of the FL-one hundred eighteen core chemical structure platform to generate FL-one hundred eighteen derivatives for treatment of human disease” (priority 2014, dated 2019)

Experiments:
HCT116-C8 cells = assay: cells; type: cell-based, human
Procedure: Cancer cell viability and growth are determined by MTT assay. […] MTT is used as a colorimetric substrate for measuring cell viability and growth. When cell growth is inhibited, there is an alteration of cellular redox activity, and thus rendering cells unable to reduce the MTT dye. Cells are seeded in 96 well plates overnight and then treated with or without a compound/drug in the presence or absence of an protein molecule inhibitor (e.g. ABCG2 inhibitor ko143) for 48-72 hours, MTT is added to a final concentration 0.5 mg/ml. Cells are continuously incubated in a 5% CO2 incubator at 37° C. for 4 h with MTT and then lysed with a cell lysis buffer (20% SDS, 50% N,N-dimethylformamide, pH 4.7), 100 μl per well, for 4 h in the incubator. Subsequently, cell absorbance in each well is measured at 570 nm with an Ultra Microplate Reader (Bio-Tek Instruments). Results are reported as the mean±SD from 3-5 independent assays at each point. […] After 72 hours, media is removed and cells are harvested using 0.5 ml of 0.25% Trypsin-EDTA. Cells are counted and viability is analyzed on a Vi-CELL XR Cell Viability Analyzer (Beckman Coulter).

[1] = system: human umbilical vein endothelial cells (HUVECS); assay: Cell growth and viability, MTT; type: cell-based; settings: 72 hours
[2] = system: human EU-4 acute lymphocytic leukemia; assay: EU-4 acute lymphocytic leukemia (ALL) mouse model; type: in vivo, SCID mice; settings: IV, q2×5
Source text: The EU-4 cells are intraperitoneally injected (5×10^6 per SCID mouse). […] Body weight changes, belly enlargement and overall mouse survival status are documented every 2-3 days throughout the experiment period.
Of note, “died with ascites” means mice at a moribund/dying state and then being euthanized. This is because moribund mice need to be euthanized based on the animal protocol rule.

[3] = system: pancreatic cancer PDX tumors (12872, 12914, 14244, 17624, 19015); assay: Pancreatic cancer patient-derived xenografts (PDX); design: species or system SCID mice; settings: mouse, in vivo
[4] = Lactone ring stability in formulated solution by mass spectrometry; type: physicochemical; settings: formulated solution on shelf for 30 days at room temperature
Procedure: Mass spectrometry (MS) parameters are used as follows. Bruker Esquire, ion trap; Infusion Flow Rate, 5 μl/min; Ion Polarity, Positive; Ion Source Type, ESI; Dry Temp, 300 deg C.; Nebulizer, 8.00 psi; Dry Gas, 7.00 Umin; HV Capillary, 4000 V; HV End Plate, −500 V; Scan Begin, 100.00 m/z; Average, 30; Max Acc Time, 400 us; and ICC Target, 50000. MS scan is in both negative ion mode and positive ion mode.

HCT-8 cells = assay: Clonogenic assay, HCT-8 cells with shC or shp53; type: cell-based, human; settings: 0.3 or 10 nM for 3 days, 14-days culture; shC versus shp53
Procedure: HCT-8 cells are infected with either control lentivirus (shC) or lentivirus expressing shRNA against human p53 (shp53). […] Cell colonies are stained with crystal violet solution after 14-days culture. […] Colonies larger than 50 cells are counted and normalized against non-treatment control group.
Cancer cells are infected with or without lentivirus particles expressing control shRNA or shRNA for p53 knockdown (pLKO.1) followed by selection with puromycin for one week at 5 μg/ml. […] Then the cells are cultured in an incubator at 37° C., 5% CO2 for another two weeks before fixation and staining with crystal violet solution. Colonies are defined as more than 50 cells and/or images are then digitally taken.

[5] = system: human proteins (MARK3, DDI1, TPD52L2, CACNB1, PGPCR1, USP2, MC2R, FGF18, TP53I3, CNBP, WDR22, PVGCSE-M1, UBE2T, ULP7, RBMS2, BMX, CCNB1IP1); assay: Protein microarray (ProtoArray) with FL118 as a probe; type: binding; settings: over 9,000 human proteins
Source text: These targets include, but not limited to, MAP/microtubule affinity-regulating kinase 3 (MARK3), DNA-damage inducible 1 (DDI1), tumor protein D52-like 2 (TPD52L2), calcium channel, voltage-dependent, beta 1 subunit (CACNB1), Probable G-protein coupled receptor 1 (PGPCR1), ubiquitin specific peptidase 2 (USP2), melanocortin 2 receptor (MC2R), Fibroblast growth factor 18 (FGF18), tumor protein p53 inducible protein 3 (TP53I3), CCHC-type zinc finger, nucleic acid binding protein (CNBP), WD repeat domain 22 (WDR22), Potassium voltage-gated channel subfamily E member 1 (PVGCSE-M1), ubiquitin-conjugating enzyme E2T (putative) (UBE2T), Ubiquitin-like protein 7 (ULP7), RNA binding motif, single stranded interacting protein 2 (RBMS2), Cytoplasmic tyrosine-protein kinase (BMX), and cyclin B1 interacting protein 1 (CCNB1IP1).

HIF-1α = assay: Western blot for HIF-1α expression under hypoxia in FaDu cells; type: cell-based, human; settings: 36 h
[6] = system: SW620 and HCT-8 colon cancer cells; assay: MTT assay with ABC transporter inhibitors; type: cell-based, human; settings: sildenafil 50 μM, 3 days
Procedure: Subconfluent SW620, HCT-8, and HCT-116 cells were lysed and analyzed for the expression of MDR1 and ABCG2 using western blots (WB). Actin is the internal control. […] Cell growth/viability was then analyzed by MTT assays. Each time point in the individual curve is the mean±SD from 3 to 5 independent assays. […] Drugs were then washed out and cells were allowed to grow in new medium without drugs for 2 weeks. Cell colonies were stained with crystal violet solution; images were digitally taken. Triplicate results are shown.

[7] = system: ABCC4 or ABCG2 in HCT-8 colon cancer cells; assay: MTT assay of HCT-8 cells transfected with ABCC4 or ABCG2; type: cell-based, human; settings: 72 hours
Procedure: HCT-8 colon cancer cells are transfected with empty vector (pcDNA3.1), ABCC4 or ABCG2 expression vectors as shown. […] Cell growth/viability is then determined by MTT assay.

[8] = Pharmacokinetics after IV injection in tumor-bearing SCID mice; type: in vivo
Procedure: Then, blood and tumor tissues were collected at 10 min, 1 h, 4 h, 12 h, 24, and 48 h. Three SCID mice at each time point were used. Standard deviation (SD) was analyzed using Excel software.
A 800 μl aliquot of ice cold acidified methanol is added to 200 μl plasma and vortexed for 15 sec. […] A 800 μl aliquot of ice cold acidified methanol is added to 200 μl homogenized tissue and then vortexed for 1 min. The samples are then centrifuged at 13,000 rpm for 5 min. and the supernatant is transferred to a clean 13×100 mm glass tube. Samples are dried under vacuum and stored at −20° C. until analysis. Dried samples were then reconstituted in 200 μl of mobile phase (80% 3% TEA and 20% acetonitrile pH 5.5) and 15 μl is injected. Analysis is carried out using an Acquity UPLC system with Fluorescence detection interfaced with Empower software. Separation is carried out on a Acquity BEH Shield RP18 1.7 μm, 2.1 mm×100 mm column (Waters). […] CPT-11 is used as the internal standard (IS); a 10 μl aliquot of a 1.3 μg/ml solution is added to each 200 μl sample. The fluorescence detector is set at the following Excitation (Ex) and Emissions (Em) wavelengths: Ex 370 nm Em 510 nm. […] To ensure quality assurance, quality control samples are prepared in plasma at 25 and 250 ng/ml aliquoted and stored at −20° C. The QC's are injected in duplicate at the beginning and end of the assay. […] Validation consists of running twelve standard curves over the course of 5 days. QC samples are analyzed with each curve.

[9] = system: FaDu head-&-neck and SW620 CRC tumor xenografts; assay: Xenografts with acquired irinotecan or topotecan resistance; type: in vivo, SCID mice; settings: FL118 1.5 or 1 mg/kg IP q2d×5
Procedure: Individual tumor curves derived from individual mice are shown. A. Mice with FaDu head-&-neck tumor xenografts were first treated with irinotecan at its maximum tolerated dose (MTD, 100 mg/kg, IP) weekly for 4-5 times (black arrow). […] B. Mice with FaDu tumor xenografts were first treated with topotecan at its MTD (4 mg/kg, IP) via daily×5 schedules for 4 cycles (each black arrow is one cycle). […] C. Mice with SW620 CRC xenografts were first treated with irinotecan at its MTD (IP, weekly×4, black arrow). […] D. Mice with SW620 xenograft tumors were first treated with topotecan at its MTD.

CC[C@@]1(O)C(=O)OCc2c1cc1n(c2=O)Cc2cc3cc4c(cc3nc2-1)OCO4 [FL118]
IC50 (HCT116-C8 cells): 0.0937 nM | RP (HCT116-C8 cells; IC50 of topotecan divided by IC50 of the drug): 4041 | sensitivity of HUVEC cells [1]: insensitive to FL118 treatment | ascites production and animal survival [2]: effectively inhibits ascites production and extends animal survival | efficacy on different PDX tumors of the same type [3]: much different efficacy to different tumors of the same type | lactone versus carboxylate form in solution [4]: fully in lactone form | clonogenic growth (HCT-8 cells): inhibits clonogenic growth independent of p53 status | biochemical targets identified [5]: Revealed Novel FL118 Biochemical Targets | hypoxia-induced HIF-1α expression (HIF-1α): abrogated by FL118 treatment | sensitization by multi-efflux pump inhibitor sildenafil [6]: sildenafil does not sensitize FL118 | effect of forced expression of ABCC4 or ABCG2 on resistance [7]: fails to increase FL118 resistance | T1/2 ([8]; FaDu tumor, iv 1.5 mg/kg): 411.1 min | Tmax ([8]; FaDu tumor, iv 1.5 mg/kg): 10 min | Vz ([8]; FaDu tumor, iv 1.5 mg/kg): 33052 g/kg | T1/2 ([8]; SW620 tumor, iv 1.5 mg/kg): 765 min | Tmax ([8]; SW620 tumor, iv 1.5 mg/kg): 10 min | Vz ([8]; SW620 tumor, iv 1.5 mg/kg): 30742 g/kg | time FL118 is maintained in tumor ([8]; intravenous injection): over 48 hours | time to clearance from blood ([8]; intravenous injection): ≤ 12 h | Cl ([8]; mouse plasma, iv 1.5 mg/kg): 238.12 mL/min/kg | Cmax ([8]; mouse plasma, iv 1.5 mg/kg): 43 ng/mL | T1/2 ([8]; mouse plasma, iv 1.5 mg/kg): 107.3 min | Tmax ([8]; mouse plasma, iv 1.5 mg/kg): 10 min | Vz ([8]; mouse plasma, iv 1.5 mg/kg): 36.849 L/kg | effect on tumors with acquired irinotecan and topotecan resistance [9]: effectively regressed
